From patent US20180235210A1, “ANTISENSE COMPOSITIONS TARGETING ERWINIA SPECIES AND METHODS OF USING THE SAME” (priority 2017, published 2018) come the findings set out here.

In series [1] the test system is Erwinia amylovora Ea110. As to the kind of experiment: Measurement of bacterial growth inhibition / MIC in LB broth. Type of series: cell-based. Here is the method:
The highly-virulent strain E. amylovora Ea110, which was isolated from an apple orchard in Michigan (Zhao et al., 2005), was used in this study. Bacterial strains were stored at −80° C. in 15% glycerol and cultured in Luria-Bertani (LB) medium at 28° C. PNA-CPP was synthesized using Bts oligomerization method by Panagene Inc (Daejeon, Korea). Streptomycin and PNA-CPP were implemented at rates indicated in each assay.
Erwinia amylovora Ea110 was cultured in LB broth overnight and then cell concentrations were adjusted to 5×10^5 CFU/ml in LB broth. A total of 80 μl of the bacterial suspension in LB was added into each well of a 96 well plate. Lyophilized PNA-CPP was resuspended in water to a stock concentration of 100 μM and was serial diluted. Twenty μl of the diluted PNA-CPP solution was added into each well that contained 80 μl of the bacterial suspension in LB to make the final concentrations indicated in each assay. Water and streptomycin were added to the wells as negative and positive controls. The plate was incubated at 28° C. with orbital shaking in a BioTek Synergy H1 microplate reader (BioTek, Winooski, Vt., USA) for 20 hr. During the incubation, the OD 600 of each well was measured every 10 min. The lowest concentration of a PNA-CPP that prevented growth after 20 hr represented the MIC. Three replicates were included in each testing, and the experiment was repeated twice.

The subject of series [2] is acpP mRNA. As to the kind of experiment: Northern blot detection of acpP expression in treated cells. Type of series: cell-based, Erwinia amylovora. As to conditions: streptomycin 1 μM and 3 μM, 15.5 hrs post inoculation. Here is the method: E. amylovora Ea110 was inoculated into LB broth at the final concentration of 5×10^5 CFU/ml, and was treated with various concentrations of PNA-CPP, water, or streptomycin. The inoculated cells were incubated at 28° C. with orbital shaking, and were collected for RNA isolation at 15.5 hrs post inoculation. Total bacterial RNA was isolated using the RNeasy Protect Bacteria Mini Kit (Qiagen, Valencia, Calif., USA) following the manufacturer's instructions. The quality and quantity of RNA was measured with a Nanodrop 2000c (Thermo Scientific, Wilmington, Del., USA).
The probe for acpP detection in Northern blots was synthesized from polymerase chain reaction (PCR) using acpP primers (forward primer 5′-TGGGCGTTAAGCAGGAAGAAG-3′ (SEQ ID NO: 5) and reverse primer 5′-TACGCCTGGTGACCATTGAT (SEQ ID NO: 6)). The PCR product was purified using a QIAquick PCR Purification kit (Qiagen) and labelled using a Biotin DecaLabel DNA Labeling Kit (Thermo Fisher Scientific, Grand Island, N.Y.) as per instruction of kit manual. Thirty micrograms of RNA was loaded for each sample and was separated on a formaldehyde denaturing gel in MOPS buffer. BrightStar®-Plus positively-charged nylon membranes (Thermo Fisher Scientific) were used for transfer of RNA from gel to membrane. […] The biotin signal was detected using a Biotin Chromogenic Detection Kit (Thermo Fisher Scientific).

Series [3] relates to apple flower-associated bacteria. As to the kind of experiment: Susceptibility of apple flower-associated bacteria and biocontrol strains (panel). As to conditions: streptomycin 20 μM. The format is cell-based. The protocol: Fifty flowers were collected from apple trees Malus×domestica ‘McIntosh’ from the Hamden, Conn. Lockwood farm in May 2016. The stigmas from all 50 flowers were removed, placed into 3 ml of 0.5×PBS, vortexed for 20 seconds, and sonicated for 5 min in a water bath sonicator to release the stigma associated bacteria. PBS buffer containing bacteria cells was serially diluted (10×, 100× and 1000×) and plated on LB agar medium and incubated at 28° C. for 48 h. On the basis of morphological colony characteristics, 200 bacterial colonies were shortlisted, sub-cultured, and identified using 16s rDNA sequencing using the forward primer 63f (5′-CAGGCCTAACACATGCAAGTC-3′) (SEQ ID NO: 10) and reverse primer 1387r (5′-GGG CGG WGT GTA CAA GGC-3′) (SEQ ID NO: 11). Fifteen different species were selected from the 200 bacterial cultures for testing against anti-acpP-CPP1 and streptomycin. Biological control agents Pseudomonas fluorescence A506, Bacillus amyloliquefaciens D747 and Pantoea agglomerans E325 were isolated from the original products on LB agar plate.
Compared to the traditional antibiotics that kill microbes with little selection, antisense antimicrobials inhibit bacterial growth through a sequence specific manner. […] Two hundred bacterial colonies were subcultured, and the identities of these colonies were determined by 16S rDNA sequencing. […]

Regarding `[H]/N=C(/N)N[C@H]1[C@H](O)[C@@H](O)[C@H](O[C@@H]2O[C@@H](C)[C@](O)(C=O)[C@H]2O[C@@H]2O[C@@H](CO)[C@H](O)[C@@H](O)[C@@H]2NC)[C@@H](N/C(N)=N\[H])[C@@H]1O` [streptomycin], the MIC in series [1] (Erwinia amylovora, E. amylovora Ea110, LB broth, 28° C., 20 hr, read-out: minimal inhibitory concentration (MIC)) is 2 µM. Moreover, in series [2], the “acpP mRNA abundance” value is reported as “did not affect”. Besides, in series [3], the “susceptibility of strains tested” value was “All strains tested are susceptible to streptomycin with the exception of P. fluorescens A506”.

Regarding “anti-acpP PNA: 10-nucleotide PNA oligomer 5′-ctcatactat-3′ (SEQ ID NO: 1), antisense to start codon region of acpP, no CPP (CTCATACTAT; all peptide nucleic acid (PNA))”, the “growth inhibition of E. amylovora” value in series [1] (LB broth, any concentration tested, compared to water) is recorded as “did not display any growth inhibition”.
